Results taken from ChEMBL document CHEMBL3046952, “Stereoselective synthesis of 2-amino-1-hydroxy-3-phenylpropylphosphonic acid” (1996).
Activity calls are given as the source filed them. No cut-off for these calls is given here.

How the values were obtained:
Cucumis sativus [1] = test: Inhibition of growth of Cucumis sativus (cucumber) hypocotyl at 1.5 mM relative to control; format: functional; details: read-out: GI
[2] = Inhibition of microsomal aminopeptidase
Lepidium sativum [3] = test: Inhibition of growth of Lepidium sativum root at 0.05 mM relative to control; format: functional; details: read-out: GI
Cucumis sativus [4] = test: Inhibition of growth of Cucumis sativus (cucumber) hypocotyl at 0.5 mM relative to control; format: functional; details: read-out: GI
Cucumis sativus [5] = test: Inhibition of growth of Cucumis sativus (cucumber) root at 0.5 mM relative to control; format: functional; details: read-out: GI
Lepidium sativum [6] = test: Inhibition of growth of Lepidium sativum hypocotyl at 0.5 mM relative to control; format: functional; details: read-out: GI
Cucumis sativus [7] = test: Inhibition of growth of Cucumis sativus (cucumber) root at 0.05 mM relative to control; format: functional; details: read-out: GI
[8] = Inhibition of cytosolic aminopeptidase
Cucumis sativus [9] = test: Inhibition of growth of Cucumis sativus (cucumber) hypocotyl at 0.05 mM relative to control; format: functional; details: read-out: GI
Lepidium sativum [10] = test: Inhibition of growth of Lepidium sativum root at 0.15 mM relative to control; format: functional; details: read-out: GI
Lepidium sativum [11] = test: Inhibition of growth of Lepidium sativum hypocotyl at 0.15 mM relative to control; format: functional; details: read-out: GI
Lepidium sativum [12] = test: Inhibition of growth of Lepidium sativum hypocotyl at 1.5 mM relative to control; format: functional; details: read-out: GI
Lepidium sativum [13] = test: Inhibition of growth of Lepidium sativum root at 0.5 mM relative to control; format: functional; details: read-out: GI
Lepidium sativum [14] = test: Inhibition of growth of Lepidium sativum hypocotyl at 0.05 mM relative to control; format: functional; details: read-out: GI
Cucumis sativus [15] = test: Inhibition of growth of Cucumis sativus (cucumber) root at 1.5 mM relative to control; format: functional; details: read-out: GI
Cucumis sativus [16] = test: Inhibition of growth of Cucumis sativus (cucumber) hypocotyl at 0.15 mM relative to control; format: functional; details: read-out: GI
Cucumis sativus [17] = test: Inhibition of growth of Cucumis sativus (cucumber) root at 0.15 mM relative to control; format: functional; details: read-out: GI
Lepidium sativum [18] = test: Inhibition of growth of Lepidium sativum root at 1.5 mM relative to control; format: functional; details: read-out: GI

| Compound | inhibition of growth at 1500 µM (Cucumis sativus [1]) | inhibition [2] | inhibition of growth at 50 µM (Lepidium sativum [3]) | inhibition of growth at 500 µM (Cucumis sativus [4]) | inhibition of growth at 500 µM (Cucumis sativus [5]) | inhibition of growth at 500 µM (Lepidium sativum [6]) | inhibition of growth at 50 µM (Cucumis sativus [7]) | inhibition [8] | inhibition of growth at 50 µM (Cucumis sativus [9]) | inhibition of growth at 150 µM (Lepidium sativum [10]) | inhibition of growth at 150 µM (Lepidium sativum [11]) | inhibition of growth at 1500 µM (Lepidium sativum [12]) | inhibition of growth at 500 µM (Lepidium sativum [13]) | inhibition of growth at 50 µM (Lepidium sativum [14]) | inhibition of growth at 1500 µM (Cucumis sativus [15]) | inhibition of growth at 150 µM (Cucumis sativus [16]) | inhibition of growth at 150 µM (Cucumis sativus [17]) | inhibition of growth at 1500 µM (Lepidium sativum [18]) |
| --- | --- | --- | --- | --- | --- | --- | --- | --- | --- | --- | --- | --- | --- | --- | --- | --- | --- | --- |
| N[C@@H](Cc1ccccc1)[C@H](O)P(=O)(O)O (stereo in doubt) | 64% | inactive | 82% | 56% | 81% | 64% | 69% | inactive | 36% | 86% | 46% | 68% | 87% | 22% | 83% | 45% | 75% | 92% |
| N[C@H](Cc1ccccc1)[C@@H](O)P(=O)(O)O (stereo in doubt) | 49% | inactive | 36% | 37% | 73% |  | 51% | inactive | 23% | 66% | 9% | 54% | 74% | 16% | 80% | 33% | 68% | 88% |
| O=C(O)CNCP(=O)(O)O [GLYPHOSATE] | 22% |  | 86% |  | 78% | 20% | 60% |  |  | 88% | 16% | 44% | 90% | 13% | 84% |  | 71% | 93% |
